Data: patent US11813264B2, “PAR1 modulation to alter myelination” (Mayo Foundation for Medical Education and Research, priority 2014, dated 2023)
Where no end group is shown, it is not given here.

What was measured:
Oli-neu oligodendrocytes = test: Process retraction in Oli-neu oligodendrocytes (Phalloidin+ processes per cell); type: cell-based, mouse; details: 24 hours, PAR1-AP 100 μM, Klk1 300 nM; for number of processes per cell: Klk6 30, 150, 300 nM, thrombin 270 nM
Procedure: (§1) Oli-neu oligodendrocytes are derived from mouse primary oligodendrocyte cultures retrovirally transduced to constitutively express the t-neu oncogene (Jung et al., Eur J Neurosci 7:1245-1265, 1995). All morphology, signaling, and myelin gene expression studies using Oli-neu oligodendrocytes were performed in media containing DMEM, 1% N2, 2 mM Glutamax, 1 mM sodium pyruvate, 20 mM HEPES buffer, and 50 μM β-mercaptoethanol (Sigma Aldrich. To evaluate PAR and Klk6 gene expression in Oli-neu (Table 2), cells were differentiated by treatment with 1 mM N^6, 2′-O-dibutyryladenosine 3′, 5′-cyclic monophosphate disodium salt (dbcAMP) for 72 hours prior to harvesting for RNA isolation. All cells were maintained at 37° C. in 95% air and 5% CO2. Cell culture reagents were obtained from Life Technologies (Carlsbad, CA) unless otherwise indicated. All cell culture experiments were performed in triplicate and repeated at least twice.
(§2) PAR agonist-induced changes in oligodendrocyte morphology: To determine the effects of recombinant Klk6, Klk1, thrombin, or PAR1-AP on oligodendroglia, 3 DIV PAR1^+/+, PAR1^−/−, and PAR2^−/− oligodendrocytes, PAR1^+/+ OPCs immediately post purification, or Oli-neu cells were grown on cover slips in the presence of agonists for 24 h. For ATP toxicity assays, oligodendrocytes were incubated with ATP (50 μM, Sigma Aldrich) in the presence of Klk6 or Klk1. Following each treatment, oligodendrocyte and OPC cultures were immunolabeled for O4 to visualize the cell body and processes. Oli-neu processes were visualized by staining the actin cytoskeleton with Cy3-conjugated Phalloidin.
(§3) To assess the effects of Klk6 and other PAR1 agonists on oligodendrocyte morphology and process stability, 20× digital micrographs were overlaid with a 780 μm^2 grid and ImageJ software 1.45r (National Institutes of Health) used to record cell number and the number of processes crossing horizontal grid lines (Scarisbrick et al., Brain 125:1283-1296, 2002). Data are expressed as the mean number of O4^+ or Phalloidin^+ processes per DAPI^+ cell (±SEM).

[1] = tested on: oligodendrocyte progenitor cells (OPCs); test: OPC process outgrowth; type: cell-based, mouse; details: 24 h; for OPC process extension / outgrowth: Klk6 150 nM, thrombin 135 nM, Klk1 150 nM
Procedure: (§4) Oligodendrocyte Cultures: Purified cortical oligodendrocyte progenitor cells (OPCs) and differentiated oligodendrocytes were isolated from mixed glial cultures derived from postnatal day 1 mice (McCarthy and de Vellis, J Cell Blot 85:890-902, 1980). Glial cultures were grown in media containing DMEM, 2 mM Glutamax, 1 mM sodium pyruvate, 20 mM HEPES, and 10% heat-inactivated fetal calf serum (Atlanta Biologicals, Lawrenceville, GA). OPCs were isolated from 10 days-in-vitro (DIV) mixed glial cultures by overnight shaking and purified by differential adhesion. OPCs were seeded in defined Neurobasal A media containing 1% N2, 50 U/mL penicillin/streptomycin, 2 mM Glutamax, 1 mM sodium pyruvate, 0.45% glucose, and 50 μM β-mercaptoethanol (Sigma Aldrich, USA). OPCs were seeded at 3×10^4/cm^2 onto tissue culture plastic or 12 mm glass cover slips coated with poly-L-lysine (PLL, 10 μg/mL). After 24 h, cultures were 92-98% immunoreactive (IR) for sulfatide (O4) and by 72 hours at least 80% were also MBP-IR.
as §2, §3
(§5) Changes in OPC or oligodendrocyte morphology were quantified from five microscopic fields per cover slip with the mean and SEM calculated across three cover slips per experiment. Each experiment was repeated at least twice using independent cultures. Analysis of oligodendrocyte morphology was performed without knowledge of treatment groups.

[2] = tested on: PLP and MBP RNA expression; test: Myelin gene expression (PLP, MBP RNA) in Oli-neu oligodendrocytes, quantitative RT-PCR; type: cell-based, mouse; details: for PLP expression: 24 hours, Klk6 300 nM, thrombin 270 nM, PAR1-AP 100 μM, Klk1 300 nM
Procedure: as §1
Expression of oligodendrocyte PARs and Klk6-real-time quantitative PCR: Total RNA was isolated from cultured cells using RNA STAT-60 (Tel-Test, Friendswood, TX). Klk6, PAR1, or PAR2 RNA expression was determined in 0.5 μg of RNA with the iScript one-step RT-PCR kit with SYBR® Green and the iCycler iQ5 system (BioRad, Hercules, CA). Transcript copy number was determined using a standard curve prepared by parallel amplification of cDNA clones diluted to known copy number (Christophi et al., J Neurochem 91:1439-1449, 2004). Amplification of the housekeeping gene glyceraldehyde phosphate 3-dehydrogenase (GAPDH) was used to control for loading. The mean and standard error (SEM) of transcript copy number was determined and data expressed as RNA copy number on a logarithmic scale.
Regulation of oligodendrocyte myelin gene expression by PAR1 agonists: Primary murine oligodendrocytes (3 DIV) or Oli-neu oligodendrocytes were seeded at 3.5×10^5 cells/well in six-well tissue culture plates. Cells were then treated with Klk6 (30-300 nM), Klk1 (300 nM), thrombin (270 nM), or PAR1-AP (100 μM) for 24 hours prior to RNA isolation. Expression of myelin-associated genes, PLP, and MBP was examined by real-time quantitative RT-PCR. Expression levels of target genes were normalized to GAPDH and expressed as percent control.

[3] = tested on: primary oligodendrocyte cultures (3 DIV); test: ATP toxicity assay in oligodendrocytes; type: cell-based, mouse
Procedure: as §2, §3
(§6) The extent of oligodendrocyte morphological differentiation was determined by scoring O4^+/DAPI^+ oligodendrocyte morphology as simple (only primary processes, no secondary branching), incomplete (one or more primary process without secondary branching), complete (all primary processes with secondary branching), or membrane (complete secondary branching with membrane sheets) (Huang et al., Nat Neurosci 14:45-53, 2011). The mean number of cells in each morphology class was determined across treatments and expressed as percent of total O4^+/DAPI^+ cells.
as §5

[4] = tested on: primary oligodendrocyte cultures (3 DIV); test: Oligodendrocyte morphological differentiation scoring (simple, incomplete, complete, membrane), process and cell number; type: cell-based, mouse
Procedure: as §4, §2, §3, §6, §5

Erk1/2 phosphorylation = test: Klk6-PAR signaling assay, Erk1/2 phosphorylation by Western blot in Oli-neu; type: cell-based, mouse; details: treatment alone; Klk6 10 minutes
Procedure: Klk6-PAR signaling assays: To examine the ability of Klk6 to mediate PAR-dependent signaling in oligodendrocytes, Oli-neu oligodendroglia (3.5×10^5 cells/well in six-well plates) were treated with Klk6 (150 nM) for 10 min, followed by protein harvest. Cell lysates were analyzed for phosphorylated or nonphosphorylated Erk1/2 by Western blot. In experiments to determine the role of PARs in Klk6 signaling, Oli-neu were preincubated with the PAR1 antagonist, SCH79797 dihydrochloride (50 nM, Tocris Biosciences, Minneapolis, MN) for 30 minutes prior to Klk6 application.
Western blot: Oli-neu lysates were obtained using a buffer containing 1% NP40, 0.5% deoxycholate, 10% glycerol, and 20 mM Tris base and separated on SDS-polyacrylamide gels prior to transfer. Membranes were blocked with 5% milk in TBS-T and incubated overnight with primary antibodies including rabbit anti-phospho-Erk1/2 (1:1,000, Cell Signaling Technology, Danvers, MA), followed with a species-appropriate horseradish peroxidase-conjugated secondary antibody (1:20,000 GE Healthcare Unlimited, UK). Signal was detected using Chemiluminescence Supersignal Pico (Pierce, Rockford, IL). Western blots were repeated three times from independent cultures, scanned, and quantified by densitometry (BioRad Quantity One 1-D Analysis Software, BioRad, Hercules, CA). Erk1/2 signal was normalized to its nonphosphorylated form. Equal loading was verified by reprobing blots for […] (Novus Biologicals, Littleton, CO).

spinal cord white matter = test: Microinjection of Klk6 or PAR1-AP into spinal cord dorsal column white matter; type: in vivo, mouse
Procedure: In vivo effects of excess Klk6 or PAR1-AP in spinal cord white matter: All mice were administered Buprenorphine preoperatively (Buprenex, 0.03 mg/kg, intraperitoneal (i.p.), Reckitt Benckise, Slough, UK) and every 12 hours for the first 48 hours following surgery. Surgical anesthesia was induced in age-matched male C57BL6/J or PAR12/2 mice using Ketamine (Ketaset, 80 mg/kg, Fort Dodge Animal Health, Fort Dodge, IA) and Xylazine i.p. (Anased, 10 mg/kg, Lloyd Laboratories, Shenendoah, IA). A thoracic (T11-T12) laminectomy was performed and a 30-40 μm glass capillary needle inserted into a 10 μL gas-tight Hamilton Syringe (Hamilton Company, Reno, NV) used to deliver 2 μL of Klk6 (0.01 μg/μL (300 nM)), PAR1-AP (0.01 μg/μL (100 μM)), or vehicle (physiologic saline) alone (n=3 for each treatment group) using a stereotaxic injection system (Stoelting, Wood Dale, IL). Under micromanipulator control (MyNeurolab, Richmond, IL), the needle was inserted 350 μm into the dorsal column, infusion carried out over 5 minutes and the needle left in place for 3 minutes to avoid backflow. All mice received 0.5 mL of sterile saline and Baytril (2.5 mg/kg, Bayer Healthcare, Shawnee Mission, KS) i.p. postoperatively.
Seventy-two hours after microinjection of PAR1 agonists, mice were deeply anesthetized with Nembutal (50 mg/kg, i.p., Lundbeck, Deerfield, IL) and perfused transcardially with 4% PFA. Two millimeter transverse spinal cord segments encompassing the microinjection epicenter as well as 2 mm rostral and caudal were embedded in paraffin. Six micrometer sections were cut and slide mounted serially. Every sixth slide was stained with hematoxylin and eosin (H&E). Adjacent sections were immunostained for oligodendroglia using an antibody specific for CC-1/APC (ab16794, AbCam, Cambridge, MA), myelin using an antibody recognizing MBP (MAB386, Millipore, Bedford, MA), and standard avidin-biotin immunoperoxidase techniques (Scarisbrick et al., J Comp Neurol 431:347-361, 2001; and Scarisbrick et al. 2012b, supra). Stained sections were cover slipped with Permount (Fisher Scientific, Pittsburgh, PA) containing 2 mg/mL bisbenzamide to visualize nuclei (Sigma Aldrich).
Measurements of white matter lesion area were based on signs of pathology (vacuolation, tissue destruction, hemorrhage) in 20× digital images of H&E stained sections. The largest lesion area in each animal was used to determine mean maximal lesion area and expressed in μm^2. The integrity of MBP immunoreactivity was assessed in sections for 2,000 μm rostrocaudal to the microinjection site. The number of dorsal column CC-1^+/DAPI^+ cells was quantified in sections across […] of spinal cord extending rostrocaudal to the epicenter. The mean area of dorsal column white matter in the intact spinal cord was approximately […]. To put the number of CC-1^+ oligodendrocytes into context, the mean number CC-1V cells per mm^2 was evaluated as the mean number per […]. Sections stained for CC-1 were also stained for GFAP (Sigma Aldrich), allowing for the exclusion of CC-1^+ astrocytes; however, no examples of double labeled cells were observed.

[5] = Klk6 150 nM, Klk1 300 nM, 24 hours

thrombin
number of processes per cell (Oli-neu oligodendrocytes): significant decrease
number of OPCs [1]: no effect
OPC process extension / outgrowth [1]: inhibited
PLP expression [2]: significantly decreased

Nc1ncnc2c1ncn2[C@@H]1O[C@H](COP(=O)(O)OP(=O)(O)OP(=O)(O)O)[C@@H](O)[C@H]1O [ATP, reference compound]
number of processes per oligodendrocyte ([3]; ATP 50 μM alone): two-fold reduction
cells with complete morphology ([3]; ATP 50 μM alone, 24 h): significant decrease
cells with membrane morphology ([3]; ATP 50 μM alone, 24 h): small, but significant increase
percentage of cells with simple morphology ([3]; ATP 50 μM alone, 24 h): significant increase
oligodendrocyte number relative to control ([3]; ATP alone): significant decrease

N#CC(=C(/N)Sc1ccccc1N)/C(C#N)=C(\N)Sc1ccccc1N [U0126, reference compound]
PLP RNA expression ([2]; U0126 alone): No significant change

Klk1: Recombinant murine Klk1 expressed using a baculovirus system
oligodendrocyte morphology ([4]; 300 nM): did not significantly impact
oligodendrocyte number [4, 5]: did not significantly impact
processes per cell [4, 5]: did not significantly impact
ATP-induced oligodendrocyte loss ([3]; co-application with ATP): did not increase
number of processes per oligodendrocyte ([3]; co-application with ATP 50 μM): did not impact
oligodendrocytes with membrane morphology ([3]; co-application with ATP 50 μM): significant decrease
Oli-neu cell number (Oli-neu oligodendrocytes; Klk6 30 nM): no effect
number of processes per cell (Oli-neu oligodendrocytes): no effect
number of OPCs [1]: no effect
OPC process extension / outgrowth [1]: comparable to controls
Erk1/2 phosphorylation (Erk1/2 phosphorylation): No significant changes

TFLLR-amide (TFLLR-NH2) [PAR1-AP, reference compound]
number of processes per cell (Oli-neu oligodendrocytes): significant decrease
PLP expression [2]: significantly decreased
maximal lesion area relative to saline alone (spinal cord white matter; PAR1+/+ mice): enhanced
reduction of CC-1+ cells in dorsal column white matter (spinal cord white matter; PAR1+/+ mice): ~15%
loss of MBP-immunoreactivity relative to saline alone (spinal cord white matter; PAR1+/+ mice, 72 hours): ~45%
rostrocaudal white matter pathology (spinal cord white matter; PAR1+/+ mice, 0.02 μg, 72 hours): 1,026.0±105.3 μm
white matter pathology (spinal cord white matter; PAR1-/- mice): absent
